These results are taken from patent US10059713B2 (Takeda Pharmaceutical Company Limited, priority 2014, dated 2018).

As a reminder, the EC50 is the concentration at which the effect is half-maximal. A high value points to weaker potency.

In this assay the target is human GPR43 (Homo sapiens (Human), UniProt O15552). The assay can be described thus: Ca-Flux functional assay: determination of agonist/positive allosteric modulator (PAM) activity. It is filed as cell-based. The note with it: CHO-K1 Gα16 cells stably expressing human GPR43; compound added with EC20 sodium acetate; intracellular Ca2+ by FLIPR; does not distinguish agonist from PAM. An outline of the steps: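 Agonist or PAM activity read as intracellular Ca2+ rise by FLIPR after adding compound plus EC20 acetate, acetate EC20 set from a prior curve. Cells: CHO-K1 Gα16 with stable human GPR43. EC50 from ten-point half-log curves starting 10 μM.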
Chain of human GPR43 (O15552 whole entry): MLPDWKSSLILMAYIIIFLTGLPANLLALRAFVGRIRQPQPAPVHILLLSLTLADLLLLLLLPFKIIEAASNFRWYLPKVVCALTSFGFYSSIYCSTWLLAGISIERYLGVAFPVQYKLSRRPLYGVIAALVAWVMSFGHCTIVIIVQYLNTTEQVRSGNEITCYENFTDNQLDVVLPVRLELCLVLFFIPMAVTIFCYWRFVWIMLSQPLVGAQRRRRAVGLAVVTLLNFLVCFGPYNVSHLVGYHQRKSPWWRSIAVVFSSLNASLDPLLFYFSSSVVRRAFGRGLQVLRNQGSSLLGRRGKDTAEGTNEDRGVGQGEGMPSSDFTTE
Take `Cc1nc(C2=CCCCC2)c2[nH]c(N)c(S(=O)(=O)c3ccccc3)c2n1` [Example 19, 7-(benzenesulfonyl)-4-(cyclohex-1-en-1-yl)-2-methyl-5H-pyrrolo[3,2-d]pyrimidin-6-amine]: the midpoint of the response, the EC50, lay at 0.028 µM. This counts as double-digit nanomolar.
In the case of `Nc1[nH]c2c(OC3CCOCC3)ncnc2c1S(=O)(=O)c1ccccc1` [Example 166, 7-(benzenesulfonyl)-4-(oxan-4-yloxy)-5H-pyrrolo[3,2-d]pyrimidin-6-amine], the EC50 came to 1.64 µM.
For the compound `Nc1[nH]c2c(N3CCC3)ncnc2c1S(=O)(=O)c1ccccc1` [Example 30, 4-(azetidin-1-yl)-7-(benzenesulfonyl)-5H-pyrrolo[3,2-d]pyrimidin-6-amine], a half-maximal effect (EC50) was put at 9.53 µM.
As for `Cc1nc(Nc2ccc(Cl)cc2)c2[nH]c(N)c(S(=O)(=O)c3ccccc3F)c2n1` [Example 300, N4-(4-chlorophenyl)-7-(2-fluorobenzenesulfonyl)-2-methyl-5H-pyrrolo[3,2-d]pyrimidine-4,6-diamine], the figure is 0.009 µM.
The compound `CC1COCCN1c1ncnc2c(S(=O)(=O)c3ccccc3)c(N)[nH]c12` (stereo not shown) [Example 54, 7-(benzenesulfonyl)-4-(3-methylmorpholin-4-yl)-5H-pyrrolo[3,2-d]pyrimidin-6-amine] returned an EC50 of 0.211 µM. Compared with the last compound, the EC50 is about 23-fold higher.
For `Cc1nc(N2CCOC3(CCC3)C2)c2[nH]c(N)c(S(=O)(=O)c3ccccc3F)c2n1` [Example 237, 7-(2-fluorobenzenesulfonyl)-2-methyl-4-{5-oxa-8-azaspiro[3.5]nonan-8-yl}-5H-pyrrolo[3,2-d]pyrimidin-6-amine], the EC50 was 0.008 µM.
As for `Cc1ccc(S(=O)(=O)c2c(N)[nH]c3c(N4CCOC(C)C4)ncnc23)c(F)c1` (stereo not shown) [Example 146, 7-(2-fluoro-4-methylbenzenesulfonyl)-4-(2-methylmorpholin-4-yl)-5H-pyrrolo[3,2-d]pyrimidin-6-amine], the figure is 0.009 µM; as for `Cc1cc(F)ccc1S(=O)(=O)c1c(N)[nH]c2c(N3CCOC(C)C3)ncnc12` (stereo not shown) [Example 178, 7-(4-fluoro-2-methylbenzenesulfonyl)-4-(2-methylmorpholin-4-yl)-5H-pyrrolo[3,2-d]pyrimidin-6-amine], 0.676 µM.
As for `Cc1nc(OC2CC(F)(F)C2)c2[nH]c(N)c(S(=O)(=O)c3ccccc3)c2n1` [Example 259, 7-(benzenesulfonyl)-4-(3,3-difluorocyclobutoxy)-2-methyl-5H-pyrrolo[3,2-d]pyrimidin-6-amine], the figure is 0.066 µM.
The compound `CCNc1ncnc2c(S(=O)(=O)c3ccccc3)c(N)[nH]c12` [Example 65, 7-(benzenesulfonyl)-4-N-ethyl-5H-pyrrolo[3,2-d]pyrimidine-4,6-diamine] showed an EC50 of 6.82 µM.
Turning to `CC1CN(c2ncnc3c(S(=O)(=O)c4ccccc4)c(N)[nH]c23)CCO1` (stereo not shown) [Example 52, 7-(benzenesulfonyl)-4-(2-methylmorpholin-4-yl)-5H-pyrrolo[3,2-d]pyrimidin-6-amine], the EC50 stood at 0.043 µM.
As for `Cc1nc(OC(C)C2CCCCC2)c2[nH]c(N)c(S(=O)(=O)c3ccccc3)c2n1` (stereo not shown) [Example 255, 7-(benzenesulfonyl)-4-(1-cyclohexylethoxy)-2-methyl-5H-pyrrolo[3,2-d]pyrimidin-6-amine], the figure is 0.065 µM.
The figure for `Nc1[nH]c2c(N3CCCOCC3)ncnc2c1S(=O)(=O)c1ccccc1` [Example 82, 7-(benzenesulfonyl)-4-(1,4-oxazepan-4-yl)-5H-pyrrolo[3,2-d]pyrimidin-6-amine] is 1.15 µM.
On to `Nc1[nH]c2c(C3=CCCCC3)nncc2c1S(=O)(=O)c1ccccc1` [Example 227, 3-(benzenesulfonyl)-7-(cyclohex-1-en-1-yl)-1H-pyrrolo[2,3-d]pyridazin-2-amine], for which a half-maximal effect (EC50) was put at 0.103 µM.
The compound `Nc1[nH]c2c(N3CCCC3)ncnc2c1S(=O)(=O)c1ccccc1` [Example 31, 7-(benzenesulfonyl)-4-(pyrrolidin-1-yl)-5H-pyrrolo[3,2-d]pyrimidin-6-amine] registered an EC50 of 0.72 µM.
The compound `Nc1[nH]c2c(N3CCOC(C(F)(F)F)C3)ncnc2c1S(=O)(=O)c1ccccc1F` (stereo not shown) [Example 302, 7-(2-fluorobenzenesulfonyl)-4-[2-(trifluoromethyl)morpholin-4-yl]-5H-pyrrolo[3,2-d]pyrimidin-6-amine] yielded an EC50 of 0.002 µM. Against the preceding compound, the EC50 is about 360-fold lower.
Consider `Cc1nc(C2CCC(F)(F)CC2)c2[nH]c(N)c(S(=O)(=O)c3ccccc3)c2n1` [Example 183, 7-(benzenesulfonyl)-4-(4,4-difluorocyclohexyl)-2-methyl-5H-pyrrolo[3,2-d]pyrimidin-6-amine], for which the EC50 was found to be 0.173 µM.
`Cc1nc(N(C)C(C)C)c2[nH]c(N)c(S(=O)(=O)c3cccc(F)c3)c2n1` [Example 193, 7-(3-fluorobenzenesulfonyl)-2,4-N-dimethyl-4-N-(propan-2-yl)-5H-pyrrolo[3,2-d]pyrimidine-4,6-diamine]: it took 0.27 µM to reach a half-maximal effect (EC50). This EC50 lies about 1.6-fold higher than the previous one.
Turning to `CC1CN(c2nc(C(F)(F)F)nc3c(S(=O)(=O)c4ccccc4F)c(N)[nH]c23)CCO1` (stereo not shown) [Example 268, 7-(2-fluorobenzenesulfonyl)-4-(2-methylmorpholin-4-yl)-2-(trifluoromethyl)-5H-pyrrolo[3,2-d]pyrimidin-6-amine], the EC50 was 0.017 µM.
`Cc1cc(C)n(-c2ncnc3c(S(=O)(=O)c4ccccc4)c(N)[nH]c23)n1` [Example 140, 7-(benzenesulfonyl)-4-(3,5-dimethyl-1H-pyrazol-1-yl)-5H-pyrrolo[3,2-d]pyrimidin-6-amine] showed an EC50 of 0.072 µM.
As for `COc1ccc(S(=O)(=O)c2c(N)[nH]c3c(C4CCCCC4)ncnc23)cn1` [Example 44, 4-cyclohexyl-7-(6-methoxypyridine-3-sulfonyl)-5H-pyrrolo[3,2-d]pyrimidin-6-amine], the figure is 0.173 µM; as for `COCCOc1ncnc2c(S(=O)(=O)c3ccccc3)c(N)[nH]c12` [Example 174, 7-(benzenesulfonyl)-4-(2-methoxyethoxy)-5H-pyrrolo[3,2-d]pyrimidin-6-amine], 6.62 µM.
`Nc1[nH]c2c(N3CCOC(C4CC4)C3)ncnc2c1S(=O)(=O)c1ccccc1` (stereo not shown) [Example 80, 7-(benzenesulfonyl)-4-(2-cyclopropylmorpholin-4-yl)-5H-pyrrolo[3,2-d]pyrimidin-6-amine] yielded an EC50 of 0.133 µM.
`CC1CN(c2ncnc3c(Sc4ccccc4)c(N)[nH]c23)CCO1` (stereo not shown) [Example 236, 4-(2-methylmorpholin-4-yl)-7-(phenylsulfanyl)-5H-pyrrolo[3,2-d]pyrimidin-6-amine] came in with an EC50 of 0.042 µM.
As for `Nc1[nH]c2c(C3CCCC3)ncnc2c1S(=O)(=O)c1ccccc1F` [Example 88, 4-cyclopentyl-7-(2-fluorobenzenesulfonyl)-5H-pyrrolo[3,2-d]pyrimidin-6-amine], the figure is 0.021 µM.
In turn, `Cc1nc(N2CCC(F)(F)CC2)c2[nH]c(N)c(S(=O)(=O)c3cccc(F)c3)c2n1` [Example 181, 4-(4,4-difluoropiperidin-1-yl)-7-(3-fluorobenzenesulfonyl)-2-methyl-5H-pyrrolo[3,2-d]pyrimidin-6-amine] had an EC50 of 0.082 µM. This EC50 is about 3.9-fold higher than that of the compound before.
The compound `Cc1nc(N2CCOC3(CCCC3)C2)c2[nH]c(N)c(S(=O)(=O)c3cccc(F)c3)c2n1` [Example 199, 7-(3-fluorobenzenesulfonyl)-2-methyl-4-{6-oxa-9-azaspiro[4.5]decan-9-yl}-5H-pyrrolo[3,2-d]pyrimidin-6-amine] came in with an EC50 of 0.025 µM.
Take `Cc1nc(N2CCOC(C)C2)c2[nH]c(N)c(S(=O)(=O)c3cc(F)ccc3F)c2n1` (stereo not shown) [Example 229, 7-(2,5-difluorobenzenesulfonyl)-2-methyl-4-(2-methylmorpholin-4-yl)-5H-pyrrolo[3,2-d]pyrimidin-6-amine]: the EC50 amounted to 0.007 µM.
For the compound `COc1ccc(S(=O)(=O)c2c(N)[nH]c3c(C4=CCCCC4)ncnc23)cc1` [Example 4, 4-(cyclohex-1-en-1-yl)-7-[(4-methoxybenzene)sulfonyl]-5H-pyrrolo[3,2-d]pyrimidin-6-amine], the EC50 worked out at 0.025 µM. Against the preceding compound, the EC50 is about 3.6-fold higher.
For `Nc1[nH]c2c(N3CCOC4(CC4)C3)ncnc2c1S(=O)(=O)c1ccccc1` [Example 151, 7-(benzenesulfonyl)-4-{4-oxa-7-azaspiro[2.5]octan-7-yl}-5H-pyrrolo[3,2-d]pyrimidin-6-amine], the EC50 is 0.023 µM.
`Cc1ccccc1-c1ncnc2c(S(=O)(=O)c3ccccc3)c(N)[nH]c12` [Example 108, 7-(benzenesulfonyl)-4-(2-methylphenyl)-5H-pyrrolo[3,2-d]pyrimidin-6-amine]: the EC50 worked out at 0.092 µM.
Compound `Nc1[nH]c2c(/C=C/C3CC3)ncnc2c1S(=O)(=O)c1ccccc1` [Example 11, 7-(benzenesulfonyl)-4-[(E)-2-cyclopropylethenyl]-5H-pyrrolo[3,2-d]pyrimidin-6-amine] showed an EC50 of 0.112 µM.
`Cc1nc(N2CCOC(C)(C)C2C)c2[nH]c(N)c(S(=O)(=O)c3ccccc3F)c2n1` (stereo not shown) [Example 8, 7-(2-fluorobenzenesulfonyl)-2-methyl-4-(2,2,3-trimethylmorpholin-4-yl)-5H-pyrrolo[3,2-d]pyrimidin-6-amine] had an EC50 of 0.003 µM.
With `CCC1CN(c2ncnc3c(S(=O)(=O)c4ccc(OC)cc4)c(N)[nH]c23)CCO1` (stereo not shown) [Example 190, 4-(2-ethylmorpholin-4-yl)-7-(4-methoxybenzenesulfonyl)-5H-pyrrolo[3,2-d]pyrimidin-6-amine], a half-maximal effect (EC50) was put at 0.125 µM.
The figure for `Cc1nc(N2CCOC(C)C2)c2[nH]c(N)c(S(=O)(=O)c3c(F)cccc3F)c2n1` (stereo not shown) [Example 263, 7-(2,6-difluorobenzenesulfonyl)-2-methyl-4-(2-methylmorpholin-4-yl)-5H-pyrrolo[3,2-d]pyrimidin-6-amine] is 0.006 µM; for `Nc1[nH]c2c(CCC3CC3)ncnc2c1S(=O)(=O)c1ccccc1` [Example 13, 7-(benzenesulfonyl)-4-(2-cyclopropylethyl)-5H-pyrrolo[3,2-d]pyrimidin-6-amine] it is 0.267 µM; for `Nc1[nH]c2c(N3CCO[C@H](c4ccccc4)C3)ncnc2c1S(=O)(=O)c1ccccc1` [Example 133, 7-(benzenesulfonyl)-4-[(2R)-2-phenylmorpholin-4-yl]-5H-pyrrolo[3,2-d]pyrimidin-6-amine] it is 0.024 µM.
